# Where “and” joins values, the source holds several entries; their conditions need not be identical. Identical values can stand only once.
# System: PPAR signaling pathway genes, fetal liver
# Assay: Fetal liver (GD18) PPAR gene array, fold induction versus control; maternal oral dosing GD14-18; rows per gene in dose order 1, 3, 10, 30, 62.5, 125, 250, 500 mg/kg/d
# Format: in vivo, Sprague-Dawley rats
# Method: A total of three blocks of 15 dams per block were dosed once daily from GD14–18 with either water vehicle (control) or HFPO-DA to evaluate fetal and maternal effects (Figure 1A). The first block of dams was dosed with control, 62.5, 125, 250, or 500mg/kg HFPO-DA ( n=3 dams for each). The second and third blocks of dams were dosed with control, 1, 3, 10, or 30mg/kg HFPO-DA ( n=3 per dose per block). Total sample sizes were n=9 for control, n=6 for 1, 3, 10, 30mg/kg , and n=3 for 62.5, 125, 250, and 500mg/kg HFPO-DA. In the first two blocks, spanning the entire dose range, we evaluated fetal testis testosterone production, fetal testis gene expression, fetal and maternal liver gene expression, fetal body weight, and maternal serum thyroid hormone and lipid concentrations. In the third block, encompassing the lower dose range utilized here, we collected fetal plasma for measuring HFPO-DA concentrations. Across all three blocks we evaluated maternal weight gain during dosing, reproductive output (number of fetuses and resorptions), maternal serum HFPO-DA concentration, and maternal liver weight at necropsy.
# For the first two blocks, spanning the full dose range, late gestation (GD18) dams were euthanized by decapitation at ∼2h after the final oral dose [ ∼0830–1000 hours Eastern Standard Time (EST)]. Trunk blood was collected and serum isolated via centrifugation ( 10,000×g for 15 min at 4°C) in vacutainer tubes, transferred to 1.5-mL microcentrifuge tubes and stored at −80°C . Dam liver weight was recorded and a sample of liver tissue was collected into a polypropylene microcentrifuge tube containing 500μL TRIzol Reagent (Invitrogen) on ice. Fetuses were removed and two randomly selected fetuses per litter were weighed. Fetal testes were collected from all male pups with a single testis from the first three males used for determination of ex vivo testosterone production and the remaining testes were homogenized and preserved in TRIzol Reagent for gene expression analysis. The liver was collected from a single, randomly selected fetus per dam/litter for gene expression analysis and transferred to a polypropylene microcentrifuge tube containing 500μL TRIzol Reagent (Invitrogen) on ice. Both dam and fetal liver samples were individually homogenized using a Bullet Blender (Next Advance) with 1-mm zirconium oxide beads, transferred to clean tubes, and stored at −80°C prior to RNA extraction (see below). Ex vivo fetal testis testosterone production was measured as previously reported ([Wilson et al. 2004b]) except the radioimmunoassay (RIA) utilized here was supplied by ALPCO (Catalog No. 72-TESTO-CT2, ALPCO). Briefly, one testis was isolated from each of three separate male fetuses in each litter and incubated in a humidified atmosphere at 37°C for 3 h in 500μL of M-199 media (phenol red–free; Hazelton Biologics, Inc.) supplemented with 10% dextran-coated charcoal-stripped fetal bovine serum (Hyclone Laboratories) in 24-well plates under gentle agitation. After incubation, media were removed and stored in siliconized microcentrifuge tubes at −80°C until RIA analyses, which were performed according to manufacturer specifications.
# Gene expression in fetal testes and fetal/maternal livers was assessed using reverse transcriptase real-time PCR of cDNA synthesized from RNA extracted from sample homogenates. RNA extraction was conducted according to TRIzol Reagent manufacturer specifications using chloroform and isopropanol. Following extraction, RNA was purified using the RNeasy Mini Kit (Catalog No. 74104; Qiagen). RNA concentration and purity (260:280 ratio ≥1.8 ) were determined with a NanoDrop 2000 spectrophotometer (Thermo Scientific). For the fetal testes, a 96-well gene array plate was previously custom designed to contain 89 target genes and 3 housekeeping genes, an intra-assay control, a genomic DNA control, a reverse transcriptase control, and a positive PCR control [see Table S1; SABioscience; ([Hannas et al. 2012])]. […]
compound,measurement,setting,value
"O=C(O)C(F)(OC(F)(F)C(F)(F)C(F)(F)F)C(F)(F)F (stereo not shown) [HFPO-DA, Hexafluoropropylene oxide dimer acid]",Acox3,dose order,1.1 fold and 1.3 fold and 1.2 fold and 1.0 fold
same,Acsl3,dose order,1.0 fold and 1.1 fold and 1.2 fold and 1.3 fold and 1.4 fold and 1.5 fold
same,Acsl4,dose order,1.0 fold and 1.2 fold and 1.5 fold and 1.6 fold and 1.7 fold
same,Acsl5,dose order,0.8 fold and 0.9 fold and 1.1 fold and 1.0 fold
same,Apoa1,dose order,1.1 fold and 1.2 fold and 0.9 fold and 1.0 fold and 1.5 fold
same,Apoa5,dose order,1.4 fold and 1.3 fold and 1.5 fold and 1.6 fold and 1.0 fold
same,Apoc3,dose order,1.0 fold and 1.1 fold and 1.3 fold and 0.9 fold and 1.2 fold and 1.4 fold
same,Apoe,dose order,1.1 fold and 0.9 fold and 1.0 fold and 1.2 fold
same,Aqp7,dose order,1.0 fold and 1.3 fold and 1.5 fold and 1.6 fold and 1.7 fold and 1.8 fold
same,Cd36,dose order,0.8 fold and 0.9 fold
same,Clu,dose order,1.1 fold and 1.4 fold and 1.3 fold and 1.2 fold
same,Creb1,dose order,1.0 fold and 1.1 fold and 0.9 fold and 0.8 fold
same,Crebbp,dose order,1.0 fold and 1.1 fold and 0.9 fold
same,Cyp27a1,dose order,1.1 fold and 1.0 fold and 0.9 fold
same,Dgat1,dose order,1.1 fold and 1.2 fold and 1.4 fold and 1.5 fold
same,Eln,dose order,1.6 fold and 1.0 fold and 1.3 fold and 1.1 fold and 1.5 fold and 1.4 fold and 1.2 fold
same,Ep300,dose order,1.0 fold and 1.2 fold and 0.9 fold
same,Fabp2,dose order,0.9 fold and 1.0 fold and 1.1 fold and 0.7 fold
same,Fabp3,dose order,1.0 fold and 1.2 fold and 1.1 fold and 0.8 fold
same,Fabp4,dose order,1.4 fold and 1.5 fold and 1.2 fold and 0.9 fold and 1.0 fold
same,Fabp5,dose order,1.1 fold and 1.0 fold and 1.3 fold and 1.4 fold and 1.5 fold and 1.8 fold
same,Fabp7,dose order,1.0 fold and 1.3 fold and 1.4 fold and 1.8 fold and 1.9 fold
same,Fads2,dose order,1.1 fold and 1.2 fold and 1.6 fold and 1.8 fold and 2.0 fold and 2.2 fold and 2.1 fold
same,Fgr,dose order,0.9 fold and 1.3 fold and 1.0 fold and 1.1 fold and 0.8 fold
same,Gk,dose order,1.4 fold and 1.9 fold and 1.7 fold and 2.0 fold and 1.0 fold and 1.2 fold
same,Hif1a,dose order,1.0 fold and 1.1 fold and 1.2 fold
same,Hspd1,dose order,1.1 fold and 1.0 fold and 1.2 fold and 1.3 fold
same,Ilk,dose order,1.0 fold and 1.2 fold and 1.1 fold
same,Klf10,dose order,1.0 fold and 1.1 fold and 1.5 fold and 1.7 fold and 1.6 fold and 1.4 fold
same,Lpin1,dose order,1.0 fold and 1.2 fold and 0.8 fold and 0.9 fold and 1.3 fold
same,Lpl,dose order,1.0 fold and 1.1 fold and 1.2 fold and 1.4 fold and 1.3 fold and 1.5 fold
same,Med1,dose order,1.0 fold and 1.1 fold and 0.9 fold
same,Mmp9,dose order,1.2 fold and 1.5 fold and 1.0 fold and 1.1 fold and 0.9 fold
same,Ncoa3,dose order,1.0 fold and 1.3 fold and 0.9 fold
same,Ncoa6,dose order,1.0 fold and 1.1 fold and 0.9 fold
same,Nr1h3,dose order,1.1 fold and 1.2 fold and 1.0 fold
same,Pck2,dose order,0.9 fold and 1.1 fold and 1.0 fold
same,Pdpk1,dose order,0.9 fold and 1.1 fold and 0.8 fold and 1.0 fold
same,Pltp,dose order,1.5 fold and 1.0 fold and 1.4 fold and 1.1 fold
same,Ppara,dose order,1.1 fold and 1.2 fold and 0.9 fold and 1.4 fold and 1.3 fold
same,Ppard,dose order,0.9 fold and 1.4 fold and 1.1 fold and 1.0 fold and 1.2 fold
same,Ppargc1a,dose order,0.9 fold and 1.0 fold and 0.7 fold and 0.6 fold and 0.5 fold
same,Ppargc1b,dose order,1.1 fold and 1.3 fold and 1.2 fold and 0.9 fold and 1.0 fold
same,Pprc1,dose order,1.0 fold and 1.1 fold and 0.9 fold and 1.2 fold
same,Pten,dose order,0.9 fold and 1.0 fold and 1.1 fold and 0.8 fold
same,Rxra,dose order,1.0 fold and 1.2 fold and 1.1 fold
same,Rxrb,dose order,1.0 fold and 1.2 fold and 1.1 fold and 0.9 fold
same,Sirt1,dose order,0.9 fold and 1.0 fold and 0.8 fold
same,Slc27a1,dose order,1.0 fold and 1.1 fold and 0.9 fold
same,Slc27a4,dose order,1.0 fold and 1.2 fold and 0.9 fold
same,Slc27a5,dose order,1.2 fold and 1.1 fold and 0.9 fold and 1.0 fold
same,Slc27a6,dose order,1.4 fold and 1.1 fold and 1.0 fold and 1.3 fold and 1.7 fold and 1.5 fold
same,Smarcd3,dose order,1.2 fold and 1.0 fold and 0.9 fold and 1.1 fold
same,Sorbs1,dose order,1.2 fold and 1.5 fold and 1.3 fold and 0.9 fold and 1.1 fold and 1.0 fold
same,Tgs1,dose order,0.9 fold and 1.0 fold and 0.8 fold
same,Txnip,dose order,0.9 fold and 1.1 fold and 1.2 fold
same,number of significantly up-regulated PPAR pathway genes,"fetal liver, ANOVA p<0.0001",28 genes
same,dose with up-regulated PPAR pathway gene expression in maternal and fetal livers,oral GD14-18,≥ 1 mg/kg

# From paper PMC6768323, “Adverse Maternal, Fetal, and Postnatal Effects of Hexafluoropropylene Oxide Dimer Acid (GenX) from Oral Gestational Exposure in Sprague-Dawley Rats” (Environmental Health Perspectives, 2019)
